One molecule from patent US9580758B2, “System and method for the detection and treatment of infection by a microbial agent associated with HIV infection” (priority 2013, dated 2017) can be followed below.

The assay concerns Rickettsiales-like agent. Type of assay: cell-based.

Regarding `O=C(N[C@H](CO)[C@H](O)c1ccc([N+](=O)[O-])cc1)C(Cl)Cl` [chloramphenicol], the “sensitivity of the 400 bp sequence (grown with the Rickettsiales-like agent) to treatment in vitro” value was “sensitive”.
